Laboratory results reported in US5658898A, “Intravenous solutions for a derivative of staurosporine” (CIBA GEIGY Corporation, priority 1994, dated 1997).

Columns and labels:
water solubility = format: physicochemical; conditions: room temperature
[1] = cited from earlier work

Row | Structure (SMILES) | solubility (water solubility) | water-solubility (in words) [1]
1 | CO[C@@H]1[C@H](N(C)C(=O)c2ccccc2)C[C@H]2O[C@]1(C)n1c3ccccc3c3c4c(c5c6ccccc6n2c5c31)C(=O)NC4 [N-benzoyl-staurosporin] | < 0.1 µg/mL | –
2 | CN[C@@H]1C[C@H]2O[C@@](C)([C@@H]1OC)n1c3ccccc3c3c4c(c5c6ccccc6n2c5c31)C(=O)NC4 [staurosporin] | – | low water-solubility
